Source: patent US8440619B2, “Utilization of hypertension/hypercardia-preventing effect of D-allose” (National University Corporation Kagawa University, priority 2005, dated 2013)

Key:
[1] = Urine generation, Na and protein excretion in urine in DS rats; type: in vivo, rat
Description: (§1) Salt-sensitive male Dahl rats of age 7 weeks and with the onset of hypertension (DS) and salt-insensitive male Dahl rats of the same age (DR) were used. The DS rats were fed with a 0.5% salt diet or a 4% salt diet (Oriental Yeast Co., Ltd.) for 4 weeks (individually referred to as 0.5% salt diet group and 4% salt diet group). During the period, D-allose or D-glucose was orally given to the 4% salt diet group at 2 g daily/kg body weight (D-allose group or D-glucose group). The DR rats were fed with the 0.5% salt diet group and used as a normal control group. Blood pressure was measured by the tail-cuff method over time, while before salt loading and on the completion of salt loading, urine was collected for one day. On the last day of the observation period, the thoracic aorta was resected. A part thereof was used to quantify the amount of generated active oxygen in the aorta by the lucigenin method, while another part thereof was used to compare the amount of generated active oxygen between the groups by the dihydroxyethidium (DHE) fluorescence method. So as to assay the expression level of the messenger RNA of the NADPH oxidase involved in the increase of tissue oxidative stress (J Hypertens. 2004; 22:2161-2168), further, the renal cortex and the thoracic aorta were partially stored at −80° C.

[2] = Body weight, organ weight and feed intake in DS rats; type: in vivo, rat; settings: 4% salt diet, 2 g daily/kg orally, after 4-week feeding
Description: as §1

[3] = system: salt-sensitive Dahl rats with the onset of hypertension (DS); experiment: Blood pressure by the tail-cuff method in salt-loaded salt-sensitive Dahl rats; type: in vivo, rat; settings: 4% salt diet, 2 g daily/kg body weight orally, in 4 weeks
Description: as §1

[4] = system: spontaneously hypertensive rats (SHR); experiment: Systolic blood pressure by the tail-cuff method in spontaneously hypertensive rats; type: in vivo, rat; settings: 2 g daily/kg orally, 4 weeks
Description: (§2) Male spontaneously hypertensive rats of age 8 weeks (SHR) and male Wister KYOTO rats (WKY) of the same age were used. SHR was fed with a 0.5% salt diet or a 8% salt diet (Oriental Yeast Co., Ltd.) for 4 weeks (individually referred to as the 0.5% salt diet group and the 8% salt diet group). Additionally, D-allose or D-glucose was orally given to the 0.5% salt diet group and the 8% salt diet group, at 2 g daily/kg body weight (D-allose group or D-glucose group) during the period. WKY was fed with the 0.5% salt diet and used as a normal control group. Systolic blood pressure was measured by the tail-cuff method over time.

[5] = system: active oxygen in rat thoracic aorta; experiment: Generated active oxygen in thoracic aorta, DHE fluorescence method; type: in vivo; settings: DS rats, 4% salt diet, 2 g daily/kg orally, 4 weeks
Description: as §1, with “[…] A 10-μm ring slice piece was prepared from the embedded aorta with a cryostat,” for “So as”, “observe” for “assay”, “intra-tissue localization of ethidium generated from the specific reaction between active oxygen and DHE, along with the intensity” for “expression level”, “luminescence, with a co-focus microscope (Bio-Rad).” for “messenger RNA of the NADPH oxidase involved in the increase of tissue oxidative stress (J Hypertens. 2004; 22:2161-2168), further, the renal cortex and the thoracic aorta were partially stored at −80° C.”

p22phox messenger RNA = experiment: Messenger RNA of NADPH oxidase-composing factor p22phox; type: in vivo, rat; settings: DS rats, 4% salt diet, 4 weeks, DR rats = 1.00
Description: as §1, with “C. The levels of the messenger RNAs of p22phox and Nox analogs (Nox-1, gp91phox, Nox-4) as the NADPH oxidase-composing factors were assayed and compared in between thoracic aorta and renal cortex.” for “C.”

[6] = system: active oxygen in rat thoracic aorta; experiment: Generated active oxygen in thoracic aorta, lucigenin method; type: in vivo; settings: DS rats, 4% salt diet, 2 g daily/kg orally, 4 weeks
Description: as §1, with “C. […] Then, the luminescence was counted with a luminescence reader (BLR-301; Aloka).” for “C.”

[7] = Body weight, heart weight and kidney weight in SHR; type: in vivo, rat; settings: 2 g daily/kg orally, 4 weeks
Description: as §2

Nox-4 messenger RNA = experiment: Messenger RNA of NADPH oxidase-composing factor Nox4; type: in vivo, rat; settings: DS rats, 4% salt diet, 4 weeks, DR rats = 1.00
Description: as §1, with “C. The levels of the messenger RNAs of p22phox and Nox analogs (Nox-1, gp91phox, Nox-4) as the NADPH oxidase-composing factors were assayed and compared in between thoracic aorta and renal cortex.” for “C.”

gp91phox messenger RNA = experiment: Messenger RNA of NADPH oxidase-composing factor gp91phox; type: in vivo, rat; settings: DS rats, 4% salt diet, 4 weeks, DR rats = 1.00
Description: as §1, with “C. The levels of the messenger RNAs of p22phox and Nox analogs (Nox-1, gp91phox, Nox-4) as the NADPH oxidase-composing factors were assayed and compared in between thoracic aorta and renal cortex.” for “C.”

Nox-1 messenger RNA = experiment: Messenger RNA of NADPH oxidase-composing factor Nox1; type: in vivo, rat; settings: DS rats, 4% salt diet, 4 weeks, DR rats = 1.00
Description: as §1, with “C. The levels of the messenger RNAs of p22phox and Nox analogs (Nox-1, gp91phox, Nox-4) as the NADPH oxidase-composing factors were assayed and compared in between thoracic aorta and renal cortex.” for “C.”

[8] = 4% salt diet, 2 g daily/kg orally, after 4-week feeding

## O=C[C@H](O)[C@@H](O)[C@H](O)[C@H](O)CO [D-glucose]
[1]; [8]
  Protein excretion in urine: 85.3 ± 20.5 mg/day
[1]; before salt loading (baseline)
  Protein excretion in urine: 13.1 ± 3.2 mg/day
[2]
  Heart weight: 1066 ± 35 mg
  Heart/body weight ratio: 3.00 ± 0.08 ×10^−3
  Kidney weight: 1370 ± 36 mg
  Kidney/body weight ratio: 3.85 ± 0.07 ×10^−3
[3]
  diastolic pressure: 125±6 mmHg
  systolic pressure: 162±5 mmHg
[4]; 0.5% salt diet
  systolic blood pressure: 201±7 mmHg
[4]; 8% salt diet
  systolic blood pressure: 255±5 mmHg
[5]
  signal accumulation in the aorta media nucleus on DHE fluorescence images: never changed
p22phox messenger RNA; Aorta
  p22phox messenger RNA level: 1.14 ± 0.32
p22phox messenger RNA; Renal cortex
  p22phox messenger RNA level: 1.19 ± 0.06
[6]
  active oxygen generation in thoracic aorta (lucigenin method): no such suppressive effect was observed
[7]; 0.5% salt diet
  Heart weight: 1180 ± 35 mg
  Heart/body weight ratio: 3.92 ± 0.15 ×10^−3
  Kidney weight: 1206 ± 32 mg
  Kidney/body weight ratio: 3.02 ± 0.02 ×10^−3
[7]; 8% salt diet
  Heart weight: 1437 ± 38 mg
  Heart/body weight ratio: 4.70 ± 0.13 ×10^−3
  Kidney weight: 1342 ± 41 mg
  Kidney/body weight ratio: 4.40 ± 0.19 ×10^−3
Nox-4 messenger RNA; Aorta
  Nox4 messenger RNA level: 1.75 ± 0.24
Nox-4 messenger RNA; Renal cortex
  Nox4 messenger RNA level: 1.38 ± 0.16
gp91phox messenger RNA; Aorta
  gp91phox messenger RNA level: 1.90 ± 0.19
gp91phox messenger RNA; Renal cortex
  gp91phox messenger RNA level: 1.20 ± 0.28
Nox-1 messenger RNA; Aorta
  Nox1 messenger RNA level: 0.85 ± 0.24
Nox-1 messenger RNA; Renal cortex
  Nox1 messenger RNA level: 1.03 ± 0.24

## O=C[C@H](O)[C@H](O)[C@H](O)[C@H](O)CO [D-allose]
[1]; [8]
  Protein excretion in urine: 31.3 ± 11.8 mg/day
[1]; before salt loading (baseline)
  Protein excretion in urine: 9.5 ± 1.2 mg/day
[2]
  Heart weight: 994 ± 28 mg
  Heart/body weight ratio: 2.88 ± 0.07 ×10^−3
  Kidney weight: 1389 ± 25 mg
  Kidney/body weight ratio: 4.03 ± 0.03 ×10^−3
[3]
  diastolic pressure: 102±4 mmHg
  systolic pressure: 135±7 mmHg
[4]; 0.5% salt diet
  systolic blood pressure: 180±5 mmHg
[4]; 8% salt diet
  systolic blood pressure: 222±8 mmHg
[5]
  signal accumulation in the aorta media nucleus on DHE fluorescence images: suppressed
p22phox messenger RNA; Aorta
  p22phox messenger RNA level: 0.83 ± 0.21
p22phox messenger RNA; Renal cortex
  p22phox messenger RNA level: 1.18 ± 0.20
[6]
  active oxygen generation in thoracic aorta (lucigenin method): suppressed to the level as observed in the 0.5% salt diet group or the DR normal control group
[7]; 0.5% salt diet
  Heart weight: 1042 ± 23 mg
  Heart/body weight ratio: 3.56 ± 0.05 ×10^−3
  Kidney weight: 1212 ± 34 mg
  Kidney/body weight ratio: 4.15 ± 0.08 ×10^−3
[7]; 8% salt diet
  Heart weight: 1337 ± 50 mg
  Heart/body weight ratio: 4.40 ± 0.06 ×10^−3
  Kidney weight: 1387 ± 61 mg
  Kidney/body weight ratio: 4.57 ± 0.17 ×10^−3
Nox-4 messenger RNA; Aorta
  Nox4 messenger RNA level: 1.36 ± 0.10
Nox-4 messenger RNA; Renal cortex
  Nox4 messenger RNA level: 1.32 ± 0.22
gp91phox messenger RNA; Aorta
  gp91phox messenger RNA level: 1.34 ± 0.27
gp91phox messenger RNA; Renal cortex
  gp91phox messenger RNA level: 0.97 ± 0.15
Nox-1 messenger RNA; Aorta
  Nox1 messenger RNA level: 0.74 ± 0.22
Nox-1 messenger RNA; Renal cortex
  Nox1 messenger RNA level: 0.88 ± 0.11
